{
  "source": "patent US20220281848A1",
  "about": "“PYRAZOLE-SUBSTITUTED PYRROLIDINONES AS HERBICIDES” (FMC Corporation, priority 2019, published 2022)",
  "assay_type_in_all_cases": "in vivo",
  "key": {"[1]": {"tested_on": "barnyardgrass (Echinochloa crus-galli, ECHCG)", "test": "Test A pre-emergence, barnyardgrass", "conditions": "after 13 d", "method_in_brief": "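Seeds were sown in standard soil in pots, kept one day in a glasshouse (24/16° C. day/night, 14 h light, 65% humidity), then sprayed with compound in acetone/water (50:50) containing 0.5% Tween 20 at 15.625, 62.5 or 250 g/ha. Plants grew on under the same conditions, watered twice daily, and damage was scored after 13 d (0 = none, 100 = total).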"}, "maize": {"tested_on": "maize", "test": "Test D pre-emergence, maize seed treated with a herbicide safener", "conditions": "ZEAMX, preemergent, 20 DAA", "method_in_brief": "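Seeds treated with herbicide safener; sown in soil; glasshouse, 16 h light, 65% humidity. Sprayed day 1 (pre) or ~day 12 (post). Spray in 0.2% v/v adjuvant. Scored 0–100 damage: 20 DAA pre, 15 d post.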"}, "plants": {"tested_on": "plants", "test": "Test D post-emergence, other plants of Tables D2 and D4", "conditions": "\"Cereals\" Postemergent, evaluated after 15 d", "method_in_brief": "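Damage was rated visually from 0 (none) to 100 (total), at 20 DAA for pre-emergence and 15 d for post-emergence. Plants grew from safener-treated seed in a glasshouse at 24/18° C. or 20/16° C. day/night, 65% humidity, watered twice daily.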"}},
  "data": [
    {"smiles": "CN1CC(c2cc(C(F)(F)F)n(C)n2)C(C(=O)Nc2cccc(F)c2C(F)(F)F)C1=O", "note": "(racemic) [Compound 19]", "values": [
      {"measurement": "damage to plant (100=total damage; 0=no damage) ECHCG", "setting": "[1]; Pre-Emergence at 15.625 g/ha", "value": 70},
      {"measurement": "damage to plant (100=total damage; 0=no damage) ECHCG", "setting": "[1]; Pre-Emergence at 62.5 g/ha", "value": 90},
      {"measurement": "damage to plant (100=total damage; 0=no damage) ECHCG", "setting": "[1]; Pre-Emergence at 250 g/ha", "value": 90},
      {"measurement": "damage to plant (100=total damage to plant; 0=no damage to plant), ZEAMX", "setting": "maize; rate 15", "value": 0},
      {"measurement": "damage to plant (100=total damage to plant; 0=no damage to plant), ZEAMX", "setting": "maize; rate 30", "value": 0},
      {"measurement": "damage to plant (100=total damage to plant; 0=no damage to plant), ZEAMX", "setting": "maize; rate 60", "value": 0},
      {"measurement": "damage to plant (100=total damage to plant; 0=no damage to plant), ZEAMX", "setting": "maize; rate 130", "value": 0},
      {"measurement": "damage to plant (100=total damage to plant; 0=no damage to plant), ZEAMX", "setting": "maize; rate 250", "value": 0},
      {"measurement": "damage to plant (100=total damage to plant; 0=no damage to plant), ZEAMX", "setting": "maize; rate 500", "value": 0},
      {"measurement": "ALOMY damage rating (100=total damage to plant; 0=no damage to plant)", "setting": "plants; Rates 130", "value": 0},
      {"measurement": "ALOMY damage rating (100=total damage to plant; 0=no damage to plant)", "setting": "plants; Rates 250", "value": 0},
      {"measurement": "ALOMY damage rating (100=total damage to plant; 0=no damage to plant)", "setting": "plants; Rates 500", "value": 30},
      {"measurement": "AVEFA damage rating (100=total damage to plant; 0=no damage to plant)", "setting": "plants; Rates 130", "value": 0},
      {"measurement": "AVEFA damage rating (100=total damage to plant; 0=no damage to plant)", "setting": "plants; Rates 250", "value": 10},
      {"measurement": "AVEFA damage rating (100=total damage to plant; 0=no damage to plant)", "setting": "plants; Rates 500", "value": 40},
      {"measurement": "BEAVA damage rating (100=total damage to plant; 0=no damage to plant)", "setting": "plants; Rates 130", "value": 0},
      {"measurement": "BEAVA damage rating (100=total damage to plant; 0=no damage to plant)", "setting": "plants; Rates 250", "value": 10},
      {"measurement": "BEAVA damage rating (100=total damage to plant; 0=no damage to plant)", "setting": "plants; Rates 500", "value": 10},
      {"measurement": "BROTE damage rating (100=total damage to plant; 0=no damage to plant)", "setting": "plants; Rates 130", "value": 0},
      {"measurement": "BROTE damage rating (100=total damage to plant; 0=no damage to plant)", "setting": "plants; Rates 250", "value": 0},
      {"measurement": "BROTE damage rating (100=total damage to plant; 0=no damage to plant)", "setting": "plants; Rates 500", "value": 0},
      {"measurement": "BRSNN damage rating (100=total damage to plant; 0=no damage to plant)", "setting": "plants; Rates 130", "value": 0},
      {"measurement": "BRSNN damage rating (100=total damage to plant; 0=no damage to plant)", "setting": "plants; Rates 250", "value": 20},
      {"measurement": "BRSNN damage rating (100=total damage to plant; 0=no damage to plant)", "setting": "plants; Rates 500", "value": 10},
      {"measurement": "CHEAL damage rating (100=total damage to plant; 0=no damage to plant)", "setting": "plants; Rates 130", "value": 0},
      {"measurement": "CHEAL damage rating (100=total damage to plant; 0=no damage to plant)", "setting": "plants; Rates 250", "value": 0},
      {"measurement": "CHEAL damage rating (100=total damage to plant; 0=no damage to plant)", "setting": "plants; Rates 500", "value": 40},
      {"measurement": "GALAP damage rating (100=total damage to plant; 0=no damage to plant)", "setting": "plants; Rates 130", "value": 0},
      {"measurement": "GALAP damage rating (100=total damage to plant; 0=no damage to plant)", "setting": "plants; Rates 250", "value": 0},
      {"measurement": "GALAP damage rating (100=total damage to plant; 0=no damage to plant)", "setting": "plants; Rates 500", "value": 20},
      {"measurement": "HORVW damage rating (100=total damage to plant; 0=no damage to plant)", "setting": "plants; Rates 130", "value": 0},
      {"measurement": "HORVW damage rating (100=total damage to plant; 0=no damage to plant)", "setting": "plants; Rates 250", "value": 0},
      {"measurement": "HORVW damage rating (100=total damage to plant; 0=no damage to plant)", "setting": "plants; Rates 500", "value": 40},
      {"measurement": "KCHSC damage rating (100=total damage to plant; 0=no damage to plant)", "setting": "plants; Rates 130", "value": 0},
      {"measurement": "KCHSC damage rating (100=total damage to plant; 0=no damage to plant)", "setting": "plants; Rates 250", "value": 0},
      {"measurement": "KCHSC damage rating (100=total damage to plant; 0=no damage to plant)", "setting": "plants; Rates 500", "value": 0},
      {"measurement": "LOLPE damage rating (100=total damage to plant; 0=no damage to plant)", "setting": "plants; Rates 130", "value": 0},
      {"measurement": "LOLPE damage rating (100=total damage to plant; 0=no damage to plant)", "setting": "plants; Rates 250", "value": 0},
      {"measurement": "LOLPE damage rating (100=total damage to plant; 0=no damage to plant)", "setting": "plants; Rates 500", "value": 10},
      {"measurement": "POAAN damage rating (100=total damage to plant; 0=no damage to plant)", "setting": "plants; Rates 130", "value": 0},
      {"measurement": "POAAN damage rating (100=total damage to plant; 0=no damage to plant)", "setting": "plants; Rates 250", "value": 30},
      {"measurement": "POAAN damage rating (100=total damage to plant; 0=no damage to plant)", "setting": "plants; Rates 500", "value": 40},
      {"measurement": "POLCO damage rating (100=total damage to plant; 0=no damage to plant)", "setting": "plants; Rates 130", "value": 0},
      {"measurement": "POLCO damage rating (100=total damage to plant; 0=no damage to plant)", "setting": "plants; Rates 250", "value": 0},
      {"measurement": "POLCO damage rating (100=total damage to plant; 0=no damage to plant)", "setting": "plants; Rates 500", "value": 0},
      {"measurement": "SINAR damage rating (100=total damage to plant; 0=no damage to plant)", "setting": "plants; SINAR, Rates 500", "value": 20},
      {"measurement": "STEME damage rating (100=total damage to plant; 0=no damage to plant)", "setting": "plants; Rates 130", "value": 0},
      {"measurement": "STEME damage rating (100=total damage to plant; 0=no damage to plant)", "setting": "plants; Rates 250", "value": 0},
      {"measurement": "STEME damage rating (100=total damage to plant; 0=no damage to plant)", "setting": "plants; Rates 500", "value": 0},
      {"measurement": "VERPE damage rating (100=total damage to plant; 0=no damage to plant)", "setting": "plants; Rates 130", "value": 0},
      {"measurement": "VERPE damage rating (100=total damage to plant; 0=no damage to plant)", "setting": "plants; Rates 250", "value": 0}
    ]}
  ]
}
